Experimental data taken from ChEMBL document CHEMBL5696442, “Discovery of type II inhibitors of TGFβ-activated kinase 1 (TAK1) and mitogen-activated protein kinase kinase kinase kinase 2 (MAP4K2)” (J Med Chem, 2015).
The source made the active and inactive calls. No cut-off for these calls is given here.

Experiments:
[1] = biological target: Ribosomal protein S6 kinase alpha-1 (Homo sapiens) (UniProt Q15418); test: Inhibition of C-terminal RPS6KA1 kinase domain 2 (unknown origin) at 10 uM by Ambit Kinomescan binding assay
[2] = biological target: Phosphatidylinositol 4,5-bisphosphate 3-kinase catalytic subunit beta isoform (Homo sapiens) (UniProt P42338); test: Inhibition of PIK3CB (unknown origin) at 10 uM by Ambit Kinomescan binding assay
[3] = biological target: Serine/threonine-protein kinase Nek2 (Homo sapiens) (UniProt P51955); test: Inhibition of NEK2 (unknown origin) at 10 uM by Ambit Kinomescan binding assay
[4] = biological target: Cyclin-dependent kinase 11B (Homo sapiens) (UniProt P21127); test: Inhibition of CDC2L1 (unknown origin) at 1 uM by Ambit Kinomescan binding assay relative to control
[5] = biological target: T1, Dual specificity mitogen-activated protein kinase kinase 5 (Homo sapiens) (UniProt Q13163); test: Inhibition of MEK5 (unknown origin) at 1 uM by Ambit Kinomescan binding assay relative to control; values are per cent of control
T1 sequence (whole entry): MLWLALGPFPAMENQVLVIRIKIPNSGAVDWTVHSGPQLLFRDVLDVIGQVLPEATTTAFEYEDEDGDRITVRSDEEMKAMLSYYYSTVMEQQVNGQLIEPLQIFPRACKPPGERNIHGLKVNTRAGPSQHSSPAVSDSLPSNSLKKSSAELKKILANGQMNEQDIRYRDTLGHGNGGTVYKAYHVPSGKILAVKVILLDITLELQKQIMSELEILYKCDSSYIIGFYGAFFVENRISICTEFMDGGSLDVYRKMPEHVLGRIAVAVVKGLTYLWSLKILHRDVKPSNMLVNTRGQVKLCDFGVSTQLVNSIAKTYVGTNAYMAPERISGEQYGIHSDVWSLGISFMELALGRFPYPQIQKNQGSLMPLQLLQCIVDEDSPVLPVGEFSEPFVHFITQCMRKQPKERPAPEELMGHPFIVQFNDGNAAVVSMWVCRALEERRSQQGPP

[6] = biological target: Non-receptor tyrosine-protein kinase TNK1 (Homo sapiens) (UniProt Q13470); test: Inhibition of TNK1 (unknown origin) at 1 uM by Ambit Kinomescan binding assay relative to control
[7] = biological target: Casein kinase I isoform gamma-3 (Homo sapiens) (UniProt Q9Y6M4); test: Inhibition of CSNK1G3 (unknown origin) at 1 uM by Ambit Kinomescan binding assay relative to control
[8] = biological target: Microtubule-associated serine/threonine-protein kinase 2 (Homo sapiens) (UniProt Q6P0Q8); test: Inhibition of MAST2 Lys2 labeling site harbouring DLKPDNLLITSMGHIK in human Huh-7 cells at 1 uM by KiNativ Profiling analysis relative to control; assay type: cell-based
[9] = biological target: Ribosomal protein S6 kinase alpha-3 (Homo sapiens) (UniProt P51812); test: Inhibition of RSK2 domain 1 Lys2 labeling site harbouring DLKPENILLDEEGHIKLTDFGLSK in human Huh-7 cell lysate at 1 uM by KiNativ Profiling analysis relative to control; assay type: subcellular
[10] = biological target: Ribosomal protein S6 kinase alpha-1 (Homo sapiens) (UniProt Q15418); test: Inhibition of RSK1 domain 1 ACT labeling site in human Huh-7 cell lysate at 1 uM by KiNativ Profiling analysis relative to control; assay type: subcellular
[11] = biological target: T2, Dual specificity mitogen-activated protein kinase kinase 6 (Homo sapiens) (UniProt P52564); test: Inhibition of MAP2K6 Lys2 labeling site in human Huh-7 cells at 1 uM by KiNativ Profiling analysis relative to control; assay type: cell-based
T2 sequence (whole entry): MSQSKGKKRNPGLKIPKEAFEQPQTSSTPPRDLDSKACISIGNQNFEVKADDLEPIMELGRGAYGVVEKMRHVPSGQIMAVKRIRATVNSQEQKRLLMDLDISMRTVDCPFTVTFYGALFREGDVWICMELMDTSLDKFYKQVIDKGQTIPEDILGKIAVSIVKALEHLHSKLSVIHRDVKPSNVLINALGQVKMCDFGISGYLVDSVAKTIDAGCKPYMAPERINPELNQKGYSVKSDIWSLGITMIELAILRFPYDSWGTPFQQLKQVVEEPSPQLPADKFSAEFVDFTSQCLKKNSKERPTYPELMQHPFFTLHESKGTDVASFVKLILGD

[12] = biological target: Serine/threonine-protein kinase 24 (Homo sapiens) (UniProt Q9Y6E0); test: Inhibition of MST3 Lys2 labeling site harbouring DIKAANVLLSEHGEVK in human Huh-7 cell lysate at 1 uM by KiNativ Profiling analysis relative to control; assay type: subcellular
[13] = biological target: Calcium/calmodulin-dependent protein kinase type II subunit gamma (Homo sapiens) (UniProt Q13555); test: Inhibition of CaMK2g Lys2 labeling site in human Huh-7 cells at 1 uM by KiNativ Profiling analysis relative to control; assay type: cell-based
Chain of Calcium/calmodulin-dependent protein kinase type II subunit gamma (Homo sapiens) (Q13555 whole entry): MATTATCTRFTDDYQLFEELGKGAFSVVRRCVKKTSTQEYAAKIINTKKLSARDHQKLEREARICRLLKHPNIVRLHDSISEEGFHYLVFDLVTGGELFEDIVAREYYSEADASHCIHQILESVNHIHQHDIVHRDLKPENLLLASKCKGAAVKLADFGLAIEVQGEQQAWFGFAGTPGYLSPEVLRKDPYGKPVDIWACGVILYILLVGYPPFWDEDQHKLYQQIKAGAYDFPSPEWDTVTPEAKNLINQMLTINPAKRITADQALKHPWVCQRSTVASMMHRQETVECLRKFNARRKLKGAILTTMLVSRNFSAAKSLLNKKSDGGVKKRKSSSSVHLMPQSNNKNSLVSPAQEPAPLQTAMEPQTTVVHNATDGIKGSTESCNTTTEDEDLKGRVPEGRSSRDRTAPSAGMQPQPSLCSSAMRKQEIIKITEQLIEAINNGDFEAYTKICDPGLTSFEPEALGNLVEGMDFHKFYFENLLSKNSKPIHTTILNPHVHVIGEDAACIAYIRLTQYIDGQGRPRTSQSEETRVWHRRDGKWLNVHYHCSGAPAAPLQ

Chain of Ribosomal protein S6 kinase alpha-1 (Homo sapiens) (Q15418 whole entry, the tested form may be a part, canonical isoform): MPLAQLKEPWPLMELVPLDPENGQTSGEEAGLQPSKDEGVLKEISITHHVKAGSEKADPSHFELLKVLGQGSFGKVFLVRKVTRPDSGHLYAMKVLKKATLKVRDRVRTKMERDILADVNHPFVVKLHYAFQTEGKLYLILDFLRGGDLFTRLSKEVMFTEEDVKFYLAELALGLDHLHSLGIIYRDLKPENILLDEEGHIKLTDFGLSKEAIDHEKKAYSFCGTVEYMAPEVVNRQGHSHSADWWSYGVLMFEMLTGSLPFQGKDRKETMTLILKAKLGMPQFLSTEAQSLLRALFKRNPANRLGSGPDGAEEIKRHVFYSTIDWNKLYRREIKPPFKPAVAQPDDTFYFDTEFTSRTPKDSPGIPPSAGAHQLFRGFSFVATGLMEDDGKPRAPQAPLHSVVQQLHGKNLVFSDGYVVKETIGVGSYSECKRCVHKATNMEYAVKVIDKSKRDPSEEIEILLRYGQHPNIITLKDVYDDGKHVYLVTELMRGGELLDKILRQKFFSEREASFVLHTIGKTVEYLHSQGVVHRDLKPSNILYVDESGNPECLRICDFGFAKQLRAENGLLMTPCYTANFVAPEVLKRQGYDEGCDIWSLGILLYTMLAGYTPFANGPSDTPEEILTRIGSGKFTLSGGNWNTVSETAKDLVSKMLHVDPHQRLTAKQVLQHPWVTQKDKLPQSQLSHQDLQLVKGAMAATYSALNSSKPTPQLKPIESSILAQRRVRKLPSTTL
Chain of Casein kinase I isoform gamma-3 (Homo sapiens) (Q9Y6M4 whole entry, looked up, canonical isoform): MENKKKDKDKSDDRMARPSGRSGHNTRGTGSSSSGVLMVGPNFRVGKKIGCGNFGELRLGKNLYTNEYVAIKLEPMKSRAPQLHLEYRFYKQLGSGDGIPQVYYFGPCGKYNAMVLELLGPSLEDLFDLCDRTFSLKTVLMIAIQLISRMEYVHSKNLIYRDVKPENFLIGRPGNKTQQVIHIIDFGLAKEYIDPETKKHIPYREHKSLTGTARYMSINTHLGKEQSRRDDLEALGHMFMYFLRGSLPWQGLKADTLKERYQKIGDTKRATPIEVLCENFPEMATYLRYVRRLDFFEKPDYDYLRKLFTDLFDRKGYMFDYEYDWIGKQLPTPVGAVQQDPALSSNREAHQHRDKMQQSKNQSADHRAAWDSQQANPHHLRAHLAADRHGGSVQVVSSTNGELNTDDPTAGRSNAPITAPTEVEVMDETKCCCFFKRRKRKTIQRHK
Chain of Microtubule-associated serine/threonine-protein kinase 2 (Homo sapiens) (Q6P0Q8 whole entry, the tested form may be a part): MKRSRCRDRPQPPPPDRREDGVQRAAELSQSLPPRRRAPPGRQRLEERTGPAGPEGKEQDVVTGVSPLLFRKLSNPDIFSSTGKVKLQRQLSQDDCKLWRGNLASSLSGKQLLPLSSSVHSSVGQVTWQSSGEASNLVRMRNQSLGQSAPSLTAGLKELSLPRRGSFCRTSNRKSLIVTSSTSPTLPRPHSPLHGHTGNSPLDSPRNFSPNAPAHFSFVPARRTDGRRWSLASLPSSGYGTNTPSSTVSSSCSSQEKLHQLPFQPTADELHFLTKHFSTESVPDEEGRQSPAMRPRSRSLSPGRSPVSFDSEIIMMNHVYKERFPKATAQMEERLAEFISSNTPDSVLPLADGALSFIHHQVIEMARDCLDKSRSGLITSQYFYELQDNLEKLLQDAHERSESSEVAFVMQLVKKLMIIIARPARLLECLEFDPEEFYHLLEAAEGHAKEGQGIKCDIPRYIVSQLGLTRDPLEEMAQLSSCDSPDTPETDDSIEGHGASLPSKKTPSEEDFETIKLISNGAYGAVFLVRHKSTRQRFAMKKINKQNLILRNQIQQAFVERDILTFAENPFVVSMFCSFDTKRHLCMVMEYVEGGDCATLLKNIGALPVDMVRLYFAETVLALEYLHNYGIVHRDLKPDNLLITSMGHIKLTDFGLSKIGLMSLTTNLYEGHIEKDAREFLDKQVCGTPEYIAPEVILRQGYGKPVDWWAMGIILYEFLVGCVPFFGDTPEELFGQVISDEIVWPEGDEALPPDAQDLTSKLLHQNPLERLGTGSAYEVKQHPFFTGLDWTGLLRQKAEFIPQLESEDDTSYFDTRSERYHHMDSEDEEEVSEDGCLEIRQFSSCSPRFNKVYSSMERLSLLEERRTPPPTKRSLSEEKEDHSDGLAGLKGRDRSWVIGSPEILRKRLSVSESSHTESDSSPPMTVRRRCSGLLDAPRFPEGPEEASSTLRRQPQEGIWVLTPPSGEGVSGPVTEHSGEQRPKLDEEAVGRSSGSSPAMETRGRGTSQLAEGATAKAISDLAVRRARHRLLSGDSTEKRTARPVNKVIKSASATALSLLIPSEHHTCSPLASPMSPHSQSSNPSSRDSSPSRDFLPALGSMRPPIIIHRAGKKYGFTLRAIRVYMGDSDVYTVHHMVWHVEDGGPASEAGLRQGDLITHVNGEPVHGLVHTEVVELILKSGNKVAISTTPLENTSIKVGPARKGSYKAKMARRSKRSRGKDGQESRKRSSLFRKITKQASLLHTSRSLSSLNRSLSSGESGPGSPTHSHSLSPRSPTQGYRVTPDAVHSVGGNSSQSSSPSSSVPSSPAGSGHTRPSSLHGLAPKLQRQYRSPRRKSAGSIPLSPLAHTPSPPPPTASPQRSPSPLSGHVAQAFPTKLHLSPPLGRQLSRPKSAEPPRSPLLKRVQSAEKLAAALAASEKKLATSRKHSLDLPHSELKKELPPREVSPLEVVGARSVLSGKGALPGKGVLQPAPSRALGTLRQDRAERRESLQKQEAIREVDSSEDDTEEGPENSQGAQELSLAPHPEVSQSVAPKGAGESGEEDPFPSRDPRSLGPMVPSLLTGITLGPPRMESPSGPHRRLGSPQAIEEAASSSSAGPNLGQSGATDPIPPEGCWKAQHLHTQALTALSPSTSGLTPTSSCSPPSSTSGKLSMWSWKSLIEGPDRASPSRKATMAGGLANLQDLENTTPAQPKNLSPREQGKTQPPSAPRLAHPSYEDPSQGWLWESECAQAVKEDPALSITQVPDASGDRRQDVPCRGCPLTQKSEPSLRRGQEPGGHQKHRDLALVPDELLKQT
Chain of Non-receptor tyrosine-protein kinase TNK1 (Homo sapiens) (Q13470 whole entry, canonical isoform): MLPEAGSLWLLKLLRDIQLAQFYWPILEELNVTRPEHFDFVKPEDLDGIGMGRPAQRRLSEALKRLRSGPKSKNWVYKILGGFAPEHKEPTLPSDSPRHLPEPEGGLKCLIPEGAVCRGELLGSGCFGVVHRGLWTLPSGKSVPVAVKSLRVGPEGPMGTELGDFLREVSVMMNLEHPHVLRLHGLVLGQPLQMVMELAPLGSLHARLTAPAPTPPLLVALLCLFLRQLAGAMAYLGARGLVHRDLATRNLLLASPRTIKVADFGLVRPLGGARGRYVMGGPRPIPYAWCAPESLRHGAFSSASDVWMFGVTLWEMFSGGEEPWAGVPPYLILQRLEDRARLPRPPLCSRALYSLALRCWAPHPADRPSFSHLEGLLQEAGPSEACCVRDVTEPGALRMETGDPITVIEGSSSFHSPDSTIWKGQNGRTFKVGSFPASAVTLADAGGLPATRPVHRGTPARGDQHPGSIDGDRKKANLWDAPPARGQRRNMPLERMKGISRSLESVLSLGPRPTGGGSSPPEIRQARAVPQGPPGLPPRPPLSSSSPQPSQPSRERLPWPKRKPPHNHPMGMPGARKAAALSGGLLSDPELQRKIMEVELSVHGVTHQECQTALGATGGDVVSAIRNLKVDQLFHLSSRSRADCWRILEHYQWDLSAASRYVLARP
Chain of Serine/threonine-protein kinase 24 (Homo sapiens) (Q9Y6E0 whole entry, looked up): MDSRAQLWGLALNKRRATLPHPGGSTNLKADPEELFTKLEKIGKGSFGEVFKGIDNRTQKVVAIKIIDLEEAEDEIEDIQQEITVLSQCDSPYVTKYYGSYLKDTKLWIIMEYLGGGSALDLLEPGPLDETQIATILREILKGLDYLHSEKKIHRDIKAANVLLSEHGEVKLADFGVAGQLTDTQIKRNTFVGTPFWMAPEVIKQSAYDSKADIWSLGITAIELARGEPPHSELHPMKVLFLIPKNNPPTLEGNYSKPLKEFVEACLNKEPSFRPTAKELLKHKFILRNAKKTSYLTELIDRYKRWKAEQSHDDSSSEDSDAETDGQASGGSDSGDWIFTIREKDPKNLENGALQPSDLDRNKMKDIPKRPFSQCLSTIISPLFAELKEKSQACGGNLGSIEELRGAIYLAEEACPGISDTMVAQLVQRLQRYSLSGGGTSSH

Compound: CCN1CCN(Cc2ccc(NC(=O)c3ccc(C)c(Oc4ccnc5[nH]ccc45)c3)cc2C(F)(F)F)CC1
- inhibition [1]: inactive
- inhibition [2]: inactive
- inhibition [3]: inactive

Compound: CCN1CCN(Cc2ccc(NC(=O)c3ccc(C)c(/C=C/c4cnc5[nH]ccc5c4OC)c3)cc2C(F)(F)F)CC1
- inhibition [4]: 61%
- residual activity [5]: 1.4%
- inhibition [6]: 6.6%
- inhibition [7]: 71%

Compound: CNc1cc(Oc2cc(C(=O)Nc3cc(N4CCN(C)CC4)cc(C(F)(F)F)c3)ccc2C)ncn1
- inhibition [8]: 53.8%
- inhibition [9]: 3.1%
- inhibition [10]: 9.3%
- inhibition [11]: -1.5%
- inhibition [12]: 5.5%
- inhibition [13]: 20.3%
